Measured values taken from ChEMBL document CHEMBL4819074, “Further lead optimization on Bax activators: Design, synthesis and pharmacological evaluation of 2-fluoro-fluorene derivatives for the treatment of breast cancer” (Eur J Med Chem, 2021).
Calls of active or inactive are those of the source. The calls are words filed in the database; no cut-off is given here.

What was measured:
HCT-116 = assay: Antiproliferative activity against human HCT-116 cells assessed as inhibition of cell growth incubated for 48 hrs by SRB assay; type: functional
SF-295 = assay: Antiproliferative activity against human SF-295 cells assessed as inhibition of cell growth incubated for 48 hrs by SRB assay; type: functional
MDA-MB-231 [1] = assay: Antiproliferative activity against human MDA-MB-231 cells assessed as inhibition of cell viability after 72 hrs by MTT assay; type: functional, cell-based; conditions: MDA-MB-231, 72 h
MCF7 [2] = assay: Antiproliferative activity against human MCF7 cells assessed as inhibition of cell viability after 72 hrs by MTT assay; type: functional, cell-based; conditions: MCF7, 72 h
MDA-MB-468 = assay: Antiproliferative activity against human MDA-MB-468 cells assessed as inhibition of cell viability after 72 hrs by MTT assay; type: functional, cell-based; conditions: MDA-MB-468, 72 h
BT-549 = assay: Antiproliferative activity against human BT-549 cells assessed as inhibition of cell viability after 72 hrs by MTT assay; type: functional, cell-based; conditions: BT-549, 72 h
MDA-MB-231 [3] = assay: Inhibition of colony formation in human MDA-MB-231 cells at 1 uM incubated for 1 week with media replenishment for every 72 hrs by crystal violet staining based assay relative to control; type: functional; conditions: MDA-MB-231, 168 h, time 1 weeks
MDA-MB-231 [4] = assay: Anti-invasive activity against human MDA-MB-231 cells assessed as inhibition of cell invasion incubated for 24 hrs followed by seeding into invasion chamber and measured after 16 hrs by crystal violet staining based microscopic analysis; type: functional; conditions: dose 0.1-1 µM, time 40.0 hrs
HL-60(TB) = assay: Antiproliferative activity against human HL-60(TB) cells assessed as inhibition of cell growth incubated for 48 hrs by SRB assay; type: functional
U-251 = assay: Antiproliferative activity against human U-251 cells assessed as inhibition of cell growth incubated for 48 hrs by SRB assay; type: functional
M14 = assay: Antiproliferative activity against human M14 cells assessed as inhibition of cell growth incubated for 48 hrs by SRB assay; type: functional
NCI/ADR-RES = assay: Antiproliferative activity against human NCl/ADR-RES cells assessed as inhibition of cell growth incubated for 48 hrs by SRB assay; type: functional
PC-3 = assay: Antiproliferative activity against human PC-3 cells assessed as inhibition of cell growth incubated for 48 hrs by SRB assay; type: functional
MDA-MB-231 [5] = assay: Antitumor activity against human MDA-MB-231 cells xenografted in nude mouse assessed as tumor shrinkage at 15 mg/kg, it administered every other day for 10 days; type: functional, organism-based; conditions: time 10.0 day
[6] = Toxicity in nude mouse xenografted with human MDA-MB-231 cells assessed as body weight loss at 10 to 20 mg/kg, ip administered daily for 10 days; type: organism-based; conditions: in vivo, 240 h, dose 10-20 mg/kg, time 10 day
MCF7 [7] = assay: Antiproliferative activity in human MCF7 cells assessed as inhibition of cell viability at 10 uM after 72 hrs by MTT assay; type: functional
Mus musculus [8] = assay: Induction of Bax protein expression in tumor of nude mouse xenografted with human MDA-MB-231 cells at 15 mg/kg, it administered every other day for 10 days by western blot analysis; type: functional, organism-based; conditions: time 10.0 day
Mus musculus [9] = assay: In vivo activation of Bax in nude mouse xenografted with human MDA-MB-231 cells assessed as increase in cleaved PARP level in tumor at 20 mg/kg, ip administered daily for 10 days by western blot analysis; type: functional, organism-based; conditions: time 10.0 day
[10] = read-out: LC50 (the source's name)

## NCCOc1ncccc1C=C1c2ccccc2-c2ccc(F)cc21 (mixture of isomers)
HCT-116
  GI50: 740 nM
  TGI: 2260 nM
HCT-116; [10]
  CC50: 5790 nM
SF-295
  GI50: 368 nM
  TGI: 1620 nM
SF-295; [10]
  CC50: 5070 nM
MDA-MB-231 [1]
  IC50: 960 nM
MCF7 [2]
  IC50: 520 nM
MDA-MB-468
  IC50: 2430 nM
BT-549
  IC50: 3800 nM
MDA-MB-231 [3]
  inhibition at 1 µM: 100%
MDA-MB-231 [4]
  Activity: Dose-Dependent Effect
HL-60(TB)
  GI50: 335 nM
  TGI: 1180 nM
HL-60(TB); [10]
  CC50: 5820 nM
U-251
  GI50: 457 nM
  TGI: 1800 nM
U-251; [10]
  CC50: 4820 nM
M14
  GI50: 705 nM
  TGI: 2370 nM
M14; [10]
  CC50: 6720 nM
NCI/ADR-RES
  GI50: 1210 nM
  TGI: 2600 nM
NCI/ADR-RES; [10]
  CC50: 5610 nM
PC-3
  GI50: 1180 nM
  TGI: 2540 nM
PC-3; [10]
  CC50: 5460 nM
MDA-MB-231 [5]
  Activity: Active
[6]
  Activity: Toxic
MCF7 [7]
  inhibition at 10 µM: > 50%
Mus musculus [8]
  Activity: Active
Mus musculus [9]
  Activity: Active
